Measured values reported in article PMC12646458, “Structural characterization of the YbbAP-TesA ABC transporter identifies it as a lipid hydrolase complex that extracts hydrophobic compounds from the bacterial inner membrane” (PLOS Biology, 2025).
Converted amounts (≈) assume the structure as drawn.

Assays:
TesA [1] = target: T1, TesA (Escherichia coli, UniProt P0ADA1); assay: ester hydrolysis by live cells expressing TesA, absorbance at […] nm; format: cell-based; design: for the cell assays expressed from a pET vector in E. coli delta-tesA (Keio) cells; settings: PBS; live E. coli delta-tesA cells; 2.5 mM substrate after mixing
T1 sequence (P0ADA1 27-208): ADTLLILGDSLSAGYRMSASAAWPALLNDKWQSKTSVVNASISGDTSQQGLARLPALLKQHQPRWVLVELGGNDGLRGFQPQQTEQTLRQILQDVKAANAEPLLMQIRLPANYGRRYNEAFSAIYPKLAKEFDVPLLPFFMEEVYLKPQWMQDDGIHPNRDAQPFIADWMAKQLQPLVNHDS

Escherichia coli BW25113 = test system: T2, Escherichia coli BW25113; assay: microbe, parasite or virus in culture; design: antibiotic susceptibility testing of E. coli strains, MIC, median of replicates; settings: read-out: Median MIC
T2 construct: BW25113
Text: (§1) Supplementary file pbio.3003427.s003.docx: S3 Table Antibiotic susceptibility testing for TesA and YbbP knockout strains. (DOCX)

PaTesA = target: T3, PaTesA (Pseudomonas aeruginosa, UniProt Q9HZY8); assay: absorbance at […] nm; format: biochemical; settings: purified tagged enzyme
T3 construct: gene tesA; purified, N-terminal tag
T3 sequence (Q9HZY8 22-201): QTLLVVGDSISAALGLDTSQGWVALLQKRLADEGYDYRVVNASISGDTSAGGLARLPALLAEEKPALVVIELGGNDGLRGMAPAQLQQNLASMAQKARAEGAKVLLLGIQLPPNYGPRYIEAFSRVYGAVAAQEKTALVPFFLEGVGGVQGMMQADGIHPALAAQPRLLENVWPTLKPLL

YbbAP-TesA = target: T4, YbbAP-TesA (Escherichia coli, UniProt P0ADA1); assay: Michaelis-Menten, absorbance at […] nm; format: biochemical; settings: PBS with 0.01% LMNG, 21 °C
T4 construct: co-expressed from pETDuet1-based plasmids in E. coli C43(DE3); His-tag on YbbA; complex in LMNG detergent; 2:1:1 YbbA:YbbP:TesA; Uncharacterized ABC transporter permease YbbP
T4 sequence (P0ADA1 27-208): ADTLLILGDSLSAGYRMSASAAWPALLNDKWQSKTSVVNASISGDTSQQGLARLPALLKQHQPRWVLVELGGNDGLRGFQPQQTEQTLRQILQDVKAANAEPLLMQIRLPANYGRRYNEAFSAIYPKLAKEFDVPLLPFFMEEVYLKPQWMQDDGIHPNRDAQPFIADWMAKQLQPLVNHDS
T4 sequence (P0A9T8 1-228 partner): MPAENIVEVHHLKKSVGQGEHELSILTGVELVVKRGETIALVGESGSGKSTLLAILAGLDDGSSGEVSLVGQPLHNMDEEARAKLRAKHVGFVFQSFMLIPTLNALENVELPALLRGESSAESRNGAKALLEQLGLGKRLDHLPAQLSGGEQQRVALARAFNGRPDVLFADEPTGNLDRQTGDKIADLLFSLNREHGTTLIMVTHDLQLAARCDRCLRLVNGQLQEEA
T4 sequence (P77504 1-804 partner): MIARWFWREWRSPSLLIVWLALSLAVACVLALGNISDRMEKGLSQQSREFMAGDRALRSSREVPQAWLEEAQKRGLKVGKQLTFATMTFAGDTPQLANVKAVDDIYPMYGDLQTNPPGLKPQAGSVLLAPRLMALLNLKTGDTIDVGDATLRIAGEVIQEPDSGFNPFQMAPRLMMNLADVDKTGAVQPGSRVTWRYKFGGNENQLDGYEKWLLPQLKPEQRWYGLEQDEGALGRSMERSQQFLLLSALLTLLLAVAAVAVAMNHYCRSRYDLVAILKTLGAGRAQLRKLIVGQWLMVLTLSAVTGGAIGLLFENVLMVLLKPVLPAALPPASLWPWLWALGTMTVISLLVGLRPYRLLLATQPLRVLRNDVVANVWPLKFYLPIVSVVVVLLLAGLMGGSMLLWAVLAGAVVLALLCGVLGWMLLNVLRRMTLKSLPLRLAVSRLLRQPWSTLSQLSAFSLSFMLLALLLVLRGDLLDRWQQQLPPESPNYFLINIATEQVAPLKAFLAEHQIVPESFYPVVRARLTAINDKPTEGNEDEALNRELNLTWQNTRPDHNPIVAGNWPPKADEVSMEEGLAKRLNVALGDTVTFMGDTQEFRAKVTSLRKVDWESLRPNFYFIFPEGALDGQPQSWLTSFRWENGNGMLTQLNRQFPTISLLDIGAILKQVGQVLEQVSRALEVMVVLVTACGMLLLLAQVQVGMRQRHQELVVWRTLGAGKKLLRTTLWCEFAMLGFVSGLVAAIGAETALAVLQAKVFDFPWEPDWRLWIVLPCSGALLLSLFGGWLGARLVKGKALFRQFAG

TesA [2] = target: T1, TesA; assay: absorbance assay; format: biochemical; design: isolated TesA; for the cell assays expressed from a pET vector in E. coli delta-tesA (Keio) cells; settings: isolated TesA
[3] = test system: T5, Escherichia coli C43(DE3); assay: microbe, parasite or virus in culture; design: antibiotic susceptibility testing of E. coli strains, MIC, median of replicates; settings: D=+IPTG +Kan, median MIC, empty pET28, IPTG and kanamycin present
T5 construct: C43(DE3) carrying empty pET28 vector
Text: as §1

YbbP = target: T6, YbbP (E. coli, UniProt P77504 1-804); assay: cryo-EM structure; YbbAP-TesA(Ser36Ala) complex with AMP-PNP, co-expressed and co-purified (Ni-affinity, SEC), 0.01% LMNG; 4.6 Å; settings: both partners purified
T6 construct: YbbP, transmembrane component (10 transmembrane helices, two periplasmic domains) of the YbbAP Type VII ABC transporter, Escherichia coli; source: size exclusion chromatography for structure determination), in 0.01% LMNG
T6 sequence: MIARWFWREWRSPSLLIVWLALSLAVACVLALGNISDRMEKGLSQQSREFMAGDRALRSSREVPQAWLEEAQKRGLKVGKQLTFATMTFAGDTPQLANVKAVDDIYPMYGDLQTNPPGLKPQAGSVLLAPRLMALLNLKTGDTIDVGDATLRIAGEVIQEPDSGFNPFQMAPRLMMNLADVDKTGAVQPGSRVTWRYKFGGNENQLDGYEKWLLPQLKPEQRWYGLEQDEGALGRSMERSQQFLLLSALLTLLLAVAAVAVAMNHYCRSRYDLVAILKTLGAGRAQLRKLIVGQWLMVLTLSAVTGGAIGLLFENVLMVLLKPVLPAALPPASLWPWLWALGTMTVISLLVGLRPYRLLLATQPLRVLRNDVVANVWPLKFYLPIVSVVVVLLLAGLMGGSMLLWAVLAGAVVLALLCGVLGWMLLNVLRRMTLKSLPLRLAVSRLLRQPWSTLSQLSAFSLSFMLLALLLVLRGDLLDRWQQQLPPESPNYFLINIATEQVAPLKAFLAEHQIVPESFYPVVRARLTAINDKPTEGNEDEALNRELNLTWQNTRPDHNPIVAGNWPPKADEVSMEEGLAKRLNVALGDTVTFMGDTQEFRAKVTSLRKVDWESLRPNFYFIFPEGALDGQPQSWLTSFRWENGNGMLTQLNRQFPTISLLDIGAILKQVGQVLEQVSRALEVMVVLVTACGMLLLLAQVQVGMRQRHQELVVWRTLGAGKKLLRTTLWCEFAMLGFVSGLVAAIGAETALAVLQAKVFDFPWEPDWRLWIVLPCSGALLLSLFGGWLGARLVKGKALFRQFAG

CCCC(=O)Oc1ccc([N+](=O)[O-])cc1 [p-nitrophenyl butyrate]
relative rate (TesA [1]): expressing either TesA (or YbbAP-TesA) from a plasmid show robust hydrolytic activity

CC1(C)S[C@@H]2[C@H](NC(=O)Cc3ccccc3)C(=O)N2[C@H]1C(=O)O [Penicillin G]
MIC (Escherichia coli BW25113): 32 µg/mL (≈ 95.7 µM)

O=C(Cc1cccs1)N[C@@H]1C(=O)N2C(C(=O)O)=C(/C=C/c3ccc([N+](=O)[O-])cc3[N+](=O)[O-])CS[C@H]12 [nitrocefin]
absorbance at 488 nm (PaTesA): We also separately confirmed that the P. aeruginosa TesA can hydrolyze nitrocefin | Km (YbbAP-TesA): < 0.01 µM | absorbance assay (TesA [2]): YbbAP-TesA (and isolated TesA) can hydrolyze nitrocefin

CC1(C)S[C@@H]2[C@H](NC(=O)[C@H](N)c3ccccc3)C(=O)N2[C@H]1C(=O)O [Ampicillin]
MIC [3]: 8 µg/mL (≈ 22.9 µM)

CC(=O)OCC1=C(C(=O)O)N2C(=O)[C@@H](NC(=O)Cc3cccs3)[C@H]2SC1 [Cephalothin]
MIC (Escherichia coli BW25113): 12 µg/mL (≈ 30.3 µM)

B1: TesA Ser36Ala (enzyme, E. coli, UniProt P0ADA1 27-208, looked up)
chain: ADTLLILGDALSAGYRMSASAAWPALLNDKWQSKTSVVNASISGDTSQQGLARLPALLKQHQPRWVLVELGGNDGLRGFQPQQTEQTLRQILQDVKAANAEPLLMQIRLPANYGRRYNEAFSAIYPKLAKEFDVPLLPFFMEEVYLKPQWMQDDGIHPNRDAQPFIADWMAKQLQPLVNHDS
notes: TesA, periplasmic multifunctional esterase/thioesterase/lysophospholipase, Escherichia coli, with the catalytic site mutation Ser36Ala; printed residue numbers fit the precursor with its signal peptide; also called TesA catalytic site mutation (Ser36Ala); source: size exclusion chromatography for structure determination), in 0.01% LMNG
stoichiometry N (YbbP): 1

B2: YbbA (natural protein, E. coli)
chain: MPAENIVEVHHLKKSVGQGEHELSILTGVELVVKRGETIALVGESGSGKSTLLAILAGLDDGSSGEVSLVGQPLHNMDEEARAKLRAKHVGFVFQSFMLIPTLNALENVELPALLRGESSAESRNGAKALLEQLGLGKRLDHLPAQLSGGEQQRVALARAFNGRPDVLFADEPTGNLDRQTGDKIADLLFSLNREHGTTLIMVTHDLQLAARCDRCLRLVNGQLQEEA
notes: also called ABC domain; source: size exclusion chromatography for structure determination), in 0.01% LMNG
stoichiometry N (YbbP): 2
